Test results: patent US20080132539A1, “Hydroxamic Acid Derivative And Age Generation Inhibitor Containing The Derivative” (priority 2003, published 2008)

Experiments:
Format in all cases: biochemical
[1] = Methyl glyoxal-trapping activity test (DMB derivatisation, HPLC); conditions: 0.02 mM methyl glyoxal, 0.2 mM test compound, PBS, 37° C., 30 minutes
Method: (§1) In 0.2 mL of PBS were incubated 0.02 mM of methyl glyoxal and 0.2 mM of test compound at 37° C. for 30 minutes. Subsequently, a volume of 5 mM DMB (1,2-diamino-4,5-methylenedioxy benzene) solution equivalent to 10 μL of the incubation sample was added, followed by further incubation at 4° C. for 7 hours to react the remaining methyl glyoxal with DMB. After the end of reaction, a 0.4 M phosphate buffer solution (pH 7.2) was added for neutralization, followed by quantitating the modified product of methyl glyoxal-DMB using HPLC.
(§2) HPLC having a YMC-Pack Pro C18 column (φ4.6 mm×150 mm) and employing 5 mM sodium phosphate buffer (pH 7.4)-25% acetonitrile as a mobile phase was used at a flow rate of 0.7 mL/min to determine fluorescence strength at Ex352 nm and Em385 nm.
The proportion of methyl glyoxal trapped by the test compound was calculated as % trapping activity, based on the quantitative value of the total modified product of methyl glyoxal-DMB in the absence of the test compound.

[2] = tested on: Maillard reaction (lysozyme / fructose, dimer formation); assay: Maillard reaction-inhibiting effects (lysozyme dimer formation with fructose, SDS-PAGE densitometry); conditions: 10 mg/mL lysozyme, 200 mM fructose, pH 7.4, 37° C., 4 days, dimer formation inhibition rate
Method: This Example examined Maillard reaction-inhibiting effects using, as test compounds, the compounds produced in the above-described Examples and the commercially available substances arginine hydroxamate (Compound No. 111), tyrosine hydroxamate (Compound No. 112), and tryptophan hydroxamate (Compound No. 113). More specifically, 10 mg/mL lysozyme, 200 mM fructose, and each of the above-described test compounds dissolved in a 0.4 mM sodium phosphate buffer (pH 7.4) so as to provide a concentrations of 0.1, 0.3, 1, or 3 mM were incubated at 37° C. for 4 days. After the incubation, the samples were subjected to SDS-PAGE, stained with Coomassie Brilliant Blue R-250, and quantitated for the formed dimmers using a densitometer. The Maillard reaction-inhibiting activity was defined as the dimmer formation inhibition rate of a test compound calculated on the basis that the amount of dimmer is 100% in the absence of the test compound, using, as blank, the amount of dimer in the absence of fructose and the test compound.

[3] = Glyoxal-trapping activity test (DMB derivatisation, HPLC); conditions: 0.02 mM glyoxal, 0.2 mM test compound, PBS, 37° C., 30 minutes
Method: as §1, with “of” for “of methyl”
as §2
The proportion of glyoxal trapped by the test compound was calculated as % trapping activity, based on the quantitative value of the total modified product of glyoxal-DMB in the absence of the test compound.

[4] = test compound concentration 0.1 mM
[5] = test compound concentration 0.3 mM
[6] = test compound concentration 1 mM
[7] = test compound concentration 3 mM

| Compound | Methyl-glyoxal-trapping activity (% trapping) [1] [% trapping] | Maillard reaction-inhibiting activity (%) [2, 4] [%] | Maillard reaction-inhibiting activity (%) [2, 5] [%] | Maillard reaction-inhibiting activity (%) [2, 6] [%] | Maillard reaction-inhibiting activity (%) [2, 7] [%] | Glyoxal-trapping activity (% trapping) [3] [% trapping] |
| --- | --- | --- | --- | --- | --- | --- |
| CCCCCn1cc(CC(N)C(=O)NO)c2ccccc21 (racemic) [Compound No. 105, (RS)-2-amino-3-(1-pentyl-1H-indol-3-yl)-N-hydroxypropionamide] | 93.3 ± 0.8 | 95 | 97 | 98 | 98 | 69.7 ± 1.1 |
| CCCN(CCC)c1ccc(C[C@H](N)C(=O)NO)cc1 [Compound No. 38, (S)-2-amino-3-(4-dipropylamino-1-phenyl)-N-hydroxypropionamide] |  | 100 | 100 | 100 | 100 |  |
| N[C@@H](Cc1ccc([N+](=O)[O-])cc1)C(=O)NO [Compound No. 40, (S)-2-amino-3-(4-nitrophenyl)-N-hydroxypropionamide] |  | 37 | 49 | 96 | 100 |  |
| CC(C)(C)Cn1c(CC[C@H](N)C(=O)NO)nc2ccccc21 [Compound No. 71, (S)-2-amino-N-hydroxy-4-[1-(2,2-dimethylpropyl)-1H-benzimidazol-2-yl]butyramide] |  | 71 | 97 | 98 | 99 |  |
| CC(C)Cn1c(CC[C@H](N)C(=O)NO)nc2ccccc21 [Compound No. 72, (S)-2-amino-N-hydroxy-4-(1-isobutyl-1H-benzimidazol-2-yl)butyramide] |  | 53 | 94 | 100 | 101 |  |
| N[C@@H](CCc1nc2ccccc2n1Cc1ccc(F)cc1)C(=O)NO [Compound No. 73, (S)-2-amino-N-hydroxy-4-[1-(4-fluorobenzyl)-1H-benzimidazol-2-yl]butyramide] |  | 94 | 98 | 98 | 100 |  |
| CC(C)(C)c1ccc(Cn2c(CC[C@H](N)C(=O)NO)nc3ccccc32)cc1 [Compound No. 74, (S)-2-amino-N-hydroxy-4-[1-(4-t-butylbenzyl)-1H-benzimidazol-2-yl]butyramide] |  | 98 | 99 | 101 | 100 |  |
| N[C@@H](CCc1nc2ccccc2n1C1CCCCC1)C(=O)NO [Compound No. 75, (S)-2-amino-N-hydroxy-4-(1-cyclohexyl-1H-benzimidazol-2-yl)butyramide] |  | 82 | 100 | 100 | 100 |  |
| N[C@@H](CCc1nc2ccccc2n1C1CCOCC1)C(=O)NO [Compound No. 76, (S)-2-amino-N-hydroxy-4-[1-(tetrahydropyran-4-yl)-1H-benzimidazol-2-yl]butyramide] |  | 13 | 65 | 95 | 98 |  |
| Cc1cc2nc(CC[C@H](N)C(=O)NO)n(Cc3ccc(C(C)(C)C)cc3)c2cc1C [Compound No. 85, (S)-2-amino-4-[1-(4-t-butylbenzyl)-5,6-dimethyl-1H-benzimidazol-2-yl]-N-hydroxybutyramide] |  | 99 | 100 | 98 | 98 |  |
| CCCn1c(CC[C@H](N)C(=O)NO)nc2cc(C)c(C)cc21 [Compound No. 94, (S)-2-amino-4-(5,6-dimethyl-1-propyl-1H-benzimidazol-2-yl)-N-hydroxybutyramide] |  | 12 | 83 | 100 | 102 |  |
| CCCCCn1c(CC[C@H](N)C(=O)NO)nc2cc(Cl)c(Cl)cc21 [Compound No. 96, (S)-2-amino-4-(5,6-dichloro-1-pentyl-1H-benzimidazol-2-yl)-N-hydroxybutyramide] |  | 99 | 103 | 104 | 104 |  |
| CCCn1c(CC[C@H](NCC2CCCCC2)C(=O)NO)nc2ccccc21 [Compound No. 97, (S)-2-(cyclohexylmethyl-amino)-4-(1-propyl-1H-benzimidazol-2-yl)-N-hydroxybutyramide] |  | 96 | 98 | 98 | 98 |  |
| CC(C)(C)c1ccc(COc2ccc(C[C@H](N)C(=O)NO)cc2)cc1 [Compound No. 99, (S)-2-amino-3-[4-(4-t-butylbenzyloxy)phenyl]-N-hydroxypropionamide] |  | 95 | 95 | 99 | 101 |  |
| N[C@@H](Cc1ccc(OCc2ccccc2-c2ccccc2)cc1)C(=O)NO [Compound No. 100, (S)-2-amino-3-[4-(2-phenylbenzyloxy)phenyl]-N-hydroxypropionamide] |  | 93 | 96 | 96 | 97 |  |
| N[C@@H](Cc1ccc(OCc2ccc([N+](=O)[O-])cc2)cc1)C(=O)NO [Compound No. 101, (S)-2-amino-3-[4-(4-nitrobenzyloxy)phenyl]-N-hydroxypropionamide] |  | 102 | 102 | 102 | 98 |  |
| N[C@@H](Cc1ccc(OCc2ccc(F)cc2F)cc1)C(=O)NO [Compound No. 102, (S)-2-amino-3-[4-(2,4-difluorobenzyloxy)phenyl]-N-hydroxypropionamide] |  | 78 | 88 | 94 | 95 |  |
| N#Cc1ccc(COc2ccc(C[C@H](N)C(=O)NO)cc2)cc1 [Compound No. 103, (S)-2-amino-3-[4-(4-cyanobenzyloxy)phenyl]-N-hydroxypropionamide] |  | 89 | 95 | 100 | 97 |  |
| CCCCCn1cc(C[C@H](N)C(=O)NO)c2ccccc21 [Compound No. 109, (S)-2-amino-3-(1-pentyl-1H-indol-3-yl)-N-hydroxypropionamide] |  | 104 | 105 | 104 | 103 |  |
| CCCCCn1cc(C[C@@H](N)C(=O)NO)c2ccccc21 [Compound No. 110, (R)-2-amino-3-(1-pentyl-1H-indol-3-yl)-N-hydroxypropionamide] |  | 96 | 103 | 101 | 101 |  |
